In series [1] the test system is mice. Kind of series: protecting mice against writhing induced by intraperitoneal injection of aqueous 0.1 percent hydrochloric acid. The series is classed as in vivo. The settings on record: subcutaneous, 15 minutes before HCl; for ED50: Mus musculus, sc. As to the method: l-Glaucine hydrobromide and d-glaucine hydrobromide were evaluated for analgesic activity in protecting mice against characteristic writhing induced by intraperitoneal injection of aqueous 0.1 percent hydrochloric acid, injected 15 minutes after subcutaneous injection of a test compound.

Series [2] deals with mice. The series can be described thus: animal or person. The series is classed as in vivo. The settings on record: Mus musculus, sc, 0.5 h; first evaluation; subcutaneous injection 30 minutes before testing; read-out: ED50 (hot plate). On the procedure:
The test compounds were administered by subcutaneous injection 30 minutes before testing.

The format of series [3] is in vivo. Particulars: intraperitoneal injection 45-60 minutes before testing.
Series [4] deals with mice. The series can be described thus: phenyl-p-quinone mouse writhing test (oral analgesic activity). Type of series: in vivo. The settings on record: orally 30 minutes prior to phenyl-p-quinone challenge; for ED50: Mus musculus, po, 0.5 h. On the procedure: Test compounds were evaluated for oral analgesic activity in the phenyl-p-quinone mouse writhing test of Hendershot & Forsaith, J. Pharmacol. Exptl. Therap. 125(3), 237 (1959). Test compounds were administered orally 30 minutes prior to the phenyl-p-quinone challenge. […]
For orientation: Writhing tests count abdominal constrictions after an irritant is injected.

A short description of series [5]: plasma concentration levels of glaucine in guinea pigs. Type of series: in vivo. The settings on record: for concentration at 0.25 h: 15 minutes after dosing, l-isomer orally 5 mg/kg, read-out: plasma glaucine level after 15 minutes. On the procedure:
Test compounds were administered to guinea pigs, and blood samples were collected at 15 minute intervals and analyzed to determine plasma concentration levels of glaucine.
Similar results were obtained with d- and l-glaucine phosphate, with l-glaucine phosphate producing from 3 to 6 or more times the levels obtained with the d-isomer throughout a 120 minute period.

Series [6] concerns monkeys. Kind of series: abuse potential: self-administration in codeine-habituated monkeys. The series is classed as in vivo. The settings on record: codeine 100 micrograms/kg per injection; d,l-glaucine phosphate substituted at 50, 100, 200 and 400 micrograms/kg per injection. The source says: The abuse potential of d,l-glaucine phosphate was studied in two monkeys in a procedure similar to that described by Deneau, et al., Psychopharmacologia 16(1):30-48, 1969.
In this procedure, the test monkeys are restrained and catheter inserted into the external jugular vein for injection of test substances in response to pressing a bar lever by the monkey. The test monkeys are first habituated to self-administer codeine at a rate of 100 micrograms/kilograms per injection. The self-administration rate of the two monkeys so trained and habituated was about 100 to 150 lever pushes per two hour session at the 100 microgram codeine level. […]

The conditions of series [7]: in vivo; cited from earlier work.
Series [8] deals with mice. Type of series: in vivo. The settings on record: for jumping behavior after naloxone (in words): naloxone 100 mg/kg intraperitoneal; for stimulation and Straub tail: increasing doses on two consecutive days, d,l-glaucine phosphate highest dose 100 mg/kg. On the procedure:
Physical dependency liability was evaluated in mice by the procedure of Saelens, et al., Aoch. Int. Pharmacodynam, 190:213-218, 1971. In this procedure, mice are administered increasing doses of a test compound at intervals on two consectuive days. The last dosage on the second day is followed by intraperitoneal injection of the morphine antagonist, naloxone, at a dosage of 100 mg/kg, and the mice are observed for characteristic jumping behavior indicative of opiate withdrawals or morphine antaganism.

Series [9] relates to mice. Kind of series: acute lethality (LD50) in mice. The settings on record: mortality within 72 hours. Type of series: in vivo.
Protocol: (§1) In other operations, various dosages of d,l-glaucine phosphate were administered to groups of mice by the oral route or by intraperitoneal injection, and the dosage which is lethal to 50 percent of the mice (LD50) was calculated from the mortality observations within 72 hours after administration.
In series [10] the test system is mice. The settings on record: cited from earlier work.
The conditions of series [11]: in vivo; cited from earlier work. This is another data set of the same source.
The conditions of series [12]: in vivo; cited from earlier work. The source holds these as a separate data set.
Series [13] is described as follows: acute lethality (LD50) in mice. Particulars: mouse, in vivo, mortality within 72 hours. Type of series: in vivo.
Protocol: as §1
The mark [14] stands for this setting: naloxone 100 mg/kg intraperitoneal after last dose on second day.

Structures can show the parent of a compound that is named as a salt. Where two headings read alike, the source gives them in different places.

Here are results for eight compounds from patent US4183939A, “Glaucine analgesic method” (priority 1978, dated 1980).

Consider `COc1cc2c(cc1OC)-c1c(OC)c(OC)cc3c1[C@@H](C2)N(C)CC3` [l-glaucine hydrobromide], for which the figures for the ED50 in [1], in series [2] and in series [4] were 5.99 mg/kg, 12.7 mg/kg and 17 mg/kg, respectively. For the same compound, the “95 percent confidence limits of ED50 (HCl writhing)” value in [1] fell in the range of 2.43 to 14.8 mg/kg. In addition, the “analgesic activity (tail pinch)” value in series [3] was “No analgesic activity was observed”. Moreover, the concentration at 0.25 h in series [5] (guinea pig, plasma, po) is approximately 40 ng/mL. Besides, the concentration at 1.5 h in series [5] (guinea pig, plasma, po, orally 5 mg/kg, end of 90 minutes test period, read-out: plasma glaucine level at end of test period) is approximately 200 ng/mL. For the same compound, the Cmax in [5] (guinea pig, plasma, po, orally 5 mg/kg, one hour after administration, read-out: peak plasma glaucine level) was more than 350 ng/mL. The “time of peak plasma level” value in [5] (orally 5 mg/kg) is listed as “one”.

Turning to `COc1ccc2c3c1O[C@H]1[C@@H](O)C=C[C@H]4[C@@H](C2)N(C)CC[C@@]341` [codeine], the self-administration response rate in series [6] is 100-150 responses/two hour session.

Regarding `COc1cc2c(cc1OC)-c1c(OC)c(OC)cc3c1[C@H](C2)N(C)CC3` [d-glaucine hydrobromide], the median effective dose (ED50) in series [1] stood at 12.9 mg/kg; in series [2] it was 23.8 mg/kg; in [4], 34 mg/kg. Moreover, the “95 percent confidence limits of ED50 (HCl writhing)” value in series [1] was in the range of 5.24 to 31.8 mg/kg. In addition, the “analgesic activity (tail pinch)” value in series [3] is recorded as “No analgesic activity was observed”. The “plasma level after initial peak, throughout the 90 minute period” value in series [5] (after initial peak at 15 minutes, to 90 minutes) is reported as 20-40 nanograms/ml. In addition, the concentration at 0.25 h in series [5] (guinea pig, plasma, po) was approximately 50 ng/mL. In [5] (guinea pig, plasma, read-out: time of initial peak plasma level (converted)), the Tmax is 15 min. Moreover, the antitussive activity entry in [7] was “antitussive activity”.

As to `CCC(=O)O[C@](Cc1ccccc1)(c1ccccc1)[C@H](C)CN(C)C` [d-Propoxyphene·HCl], the “ED50 (tail pinch)” value in [3] was determined as 16.7 mg/kg.

Turning to `COc1cc2c(cc1OC)-c1c(OC)c(OC)cc3c1C(C2)N(C)CC3` (racemic) [d,l-glaucine lactate], the “oral ED50 (phenyl-p-quinone writhing)” value in series [4] (30 min) was found to be 25.5 mg/kg. Besides, the “jumping behavior after naloxone (in words)” value in [8] was “no jumping in any of the ten mice tested”. In addition, the “LD50, intraperitoneal” value in series [9] (intraperitoneal) is recorded as 178 mg/kg. For the same compound, the “LD50, oral” value in series [9] (oral, 4320 min) is on record as 383 mg/kg.

Turning to `COc1cc2c(cc1OC)-c1c(OC)c(OC)cc3c1[C@H](C2)N(C)CC3` [d-glaucine], in series [10], the “hexenal and chloral hydrate sleep time” value was “prolongs hexenal and chloral hydrate sleep time”. Further, the “doses with analgesic activity” value in [11] was 50 to 100 mg/kg. Also, in series [12], the adrenolytic activity entry is recorded as “adrenolytic activity”.

The compound `COc1cc2c(cc1OC)-c1c(OC)c(OC)cc3c1C(C2)N(C)CC3` (racemic) [d,l-glaucine phosphate] had an ED50 in series [4] of 23 mg/kg. In addition, in series [6], the self-administration response rate is on record as 10-20 responses/two hour session. Moreover, the “stimulation and Straub tail” value in series [8] is reported as “no Straub tail at the highest dose”. Also, the “jumping behavior after naloxone (in words)” value in series [8] (listed as d,l-Glaucine phosphate 1:11/2 salt) is on record as “no jumping behavior in any of the eight mice tested”. Also, the LD50 at 72 h in series [13] (ip, intraperitoneal, read-out: LD50, intraperitoneal) was 178 mg/kg; in [13] (po, read-out: LD50, oral), not below 681 mg/kg.

For the compound `COc1ccc2c3c1O[C@H]1[C@@H](O)C=C[C@H]4[C@@H](C2)N(C)CC[C@@]341` [codeine phosphate], the “ED50 (tail pinch)” value in series [3] was found to be 6.8 mg/kg. The same compound gave an ED50 in series [4] of 21.1 mg/kg. In addition, the “stimulation and Straub tail” value in series [8] was “produced Straub tail and stimulation”. Also, in series [8] (setting [14]), the “mice jumping after naloxone” value was 2 of 6 and the “total jumps after naloxone” value is reported as 23 jumps total.

Usually ED50 stands for the dose at which the effect has come halfway, by size or by number of responders. Usually LD50 stands for the dose at which mortality reaches 50%.
